{"source": "paper PMC5988656", "about": "“Phase I studies of AZD1208, a proviral integration Moloney virus kinase inhibitor in solid and haematological cancers” (British Journal of Cancer, 2018)", "tested_on": "patients with advanced solid tumours", "test": "Solid tumour dose-escalation study: safety and tolerability (AEs, DLTs)", "description": "Conducted at two UK centres and one in Japan. Dose escalation followed a rolling six design.[14] Patients received a single dose on Day 1 during Cycle 0, followed by a 3-day washout period, after which multiple dosing was initiated. Cycle 1 was a 21-day period from the first dose of multiple dosing.\nThe CTCAE (version 4.0) was utilised to grade all AE events.\nAEs were summarised by Medical Dictionary for Regulatory Activities (MedDRA) system organ class, MedDRA preferred term and CTCAE grade. Summary statistics of mean, median, standard deviation, minimum, maximum and number of observations were used."}
{"smiles": "N[C@@H]1CCCN(c2c(/C=C3\\SC(=O)NC3=O)cccc2-c2ccccc2)C1", "note": "[AZD1208]", "values": [{"measurement": "White blood cell count decreased (all-grade AE)", "setting": "540 mg, n = 7", "result": "2 (28.6) n (%)"}, {"measurement": "Patients requiring dose interruptions because of AEs", "setting": "700 mg", "result": 3, "unit": "n"}, {"measurement": "Patients with CTCAE grade ≥3 AEs causally related to AZD1208", "setting": "700 mg (nausea, fatigue)", "result": 1, "unit": "n"}, {"measurement": "Anaemia (all-grade AE)", "setting": "700 mg, n = 6", "result": "3 (50.0) n (%)"}, {"measurement": "Constipation (all-grade AE)", "setting": "700 mg, n = 6", "result": "2 (33.3) n (%)"}, {"measurement": "Decreased appetite (all-grade AE)", "setting": "700 mg, n = 6", "result": "2 (33.3) n (%)"}, {"measurement": "Diarrhoea (all-grade AE)", "setting": "700 mg, n = 6", "result": "5 (83.3) n (%)"}, {"measurement": "Dry skin (all-grade AE)", "setting": "700 mg, n = 6", "result": "1 (16.7) n (%)"}, {"measurement": "Dyspnoea (all-grade AE)", "setting": "700 mg, n = 6", "result": "0 (0.0) n (%)"}, {"measurement": "Fatigue (all-grade AE)", "setting": "700 mg, n = 6", "result": "4 (66.7) n (%)"}, {"measurement": "GGT increased (all-grade AE)", "setting": "700 mg, n = 6", "result": "0 (0.0) n (%)"}, {"measurement": "Hyperglycaemia (all-grade AE)", "setting": "700 mg, n = 6", "result": "0 (0.0) n (%)"}, {"measurement": "Hypoalbuminaemia (all-grade AE)", "setting": "700 mg, n = 6", "result": "3 (50.0) n (%)"}, {"measurement": "Hypokalaemia (all-grade AE)", "setting": "700 mg, n = 6", "result": "1 (16.7) n (%)"}, {"measurement": "Hyponatraemia (all-grade AE)", "setting": "700 mg, n = 6", "result": "1 (16.7) n (%)"}, {"measurement": "Insomnia (all-grade AE)", "setting": "700 mg, n = 6", "result": "0 (0.0) n (%)"}, {"measurement": "Musculoskeletal chest pain (all-grade AE)", "setting": "700 mg, n = 6", "result": "1 (16.7) n (%)"}, {"measurement": "Nausea (all-grade AE)", "setting": "700 mg, n = 6", "result": "5 (83.3) n (%)"}, {"measurement": "Patients with any AE (all-grade AE)", "setting": "700 mg, n = 6", "result": "6 (100.0) n (%)"}, {"measurement": "Platelet count decreased (all-grade AE)", "setting": "700 mg, n = 6", "result": "1 (16.7) n (%)"}, {"measurement": "Pyrexia (all-grade AE)", "setting": "700 mg, n = 6", "result": "2 (33.3) n (%)"}, {"measurement": "Thrombocytopenia (all-grade AE)", "setting": "700 mg, n = 6", "result": "1 (16.7) n (%)"}, {"measurement": "Vomiting (all-grade AE)", "setting": "700 mg, n = 6", "result": "4 (66.7) n (%)"}, {"measurement": "White blood cell count decreased (all-grade AE)", "setting": "700 mg, n = 6", "result": "1 (16.7) n (%)"}, {"measurement": "Patients requiring dose interruptions because of AEs", "setting": "800 mg", "result": 2, "unit": "n"}, {"measurement": "Patients with CTCAE grade ≥3 AEs causally related to AZD1208", "setting": "800 mg (fatigue, hyperglycaemia)", "result": 3, "unit": "n"}, {"measurement": "Tolerability", "setting": "800 mg QD", "result": "not tolerated"}, {"measurement": "Abdominal pain (all-grade AE)", "setting": "800 mg, n = 6", "result": "0 (0.0) n (%)"}, {"measurement": "Anaemia (all-grade AE)", "setting": "800 mg, n = 6", "result": "2 (33.3) n (%)"}, {"measurement": "Constipation (all-grade AE)", "setting": "800 mg, n = 6", "result": "0 (0.0) n (%)"}, {"measurement": "DLT detail, action taken", "setting": "800 mg, n = 6", "result": "Fatigue, drug interrupted; fatigue, drug interrupted"}, {"measurement": "Decreased appetite (all-grade AE)", "setting": "800 mg, n = 6", "result": "3 (50.0) n (%)"}, {"measurement": "Diarrhoea (all-grade AE)", "setting": "800 mg, n = 6", "result": "6 (100.0) n (%)"}, {"measurement": "Dry skin (all-grade AE)", "setting": "800 mg, n = 6", "result": "0 (0.0) n (%)"}, {"measurement": "Dyspnoea (all-grade AE)", "setting": "800 mg, n = 6", "result": "0 (0.0) n (%)"}, {"measurement": "Fatigue (all-grade AE)", "setting": "800 mg, n = 6", "result": "5 (83.3) n (%)"}, {"measurement": "GGT increased (all-grade AE)", "setting": "800 mg, n = 6", "result": "1 (16.7) n (%)"}, {"measurement": "Hyperglycaemia (all-grade AE)", "setting": "800 mg, n = 6", "result": "2 (33.3) n (%)"}, {"measurement": "Hypoalbuminaemia (all-grade AE)", "setting": "800 mg, n = 6", "result": "0 (0.0) n (%)"}, {"measurement": "Hypokalaemia (all-grade AE)", "setting": "800 mg, n = 6", "result": "1 (16.7) n (%)"}, {"measurement": "Hyponatraemia (all-grade AE)", "setting": "800 mg, n = 6", "result": "0 (0.0) n (%)"}, {"measurement": "Insomnia (all-grade AE)", "setting": "800 mg, n = 6", "result": "1 (16.7) n (%)"}, {"measurement": "Musculoskeletal chest pain (all-grade AE)", "setting": "800 mg, n = 6", "result": "0 (0.0) n (%)"}, {"measurement": "Nausea (all-grade AE)", "setting": "800 mg, n = 6", "result": "4 (66.7) n (%)"}, {"measurement": "Patients with any AE (all-grade AE)", "setting": "800 mg, n = 6", "result": "6 (100.0) n (%)"}, {"measurement": "Platelet count decreased (all-grade AE)", "setting": "800 mg, n = 6", "result": "1 (16.7) n (%)"}, {"measurement": "Pyrexia (all-grade AE)", "setting": "800 mg, n = 6", "result": "0 (0.0) n (%)"}, {"measurement": "Thrombocytopenia (all-grade AE)", "setting": "800 mg, n = 6", "result": "1 (16.7) n (%)"}, {"measurement": "Vomiting (all-grade AE)", "setting": "800 mg, n = 6", "result": "3 (50.0) n (%)"}, {"measurement": "White blood cell count decreased (all-grade AE)", "setting": "800 mg, n = 6", "result": "0 (0.0) n (%)"}, {"measurement": "Abdominal pain (all-grade AE)", "setting": "Total N = 35", "result": "8 (22.9) n (%)"}, {"measurement": "Anaemia (all-grade AE)", "setting": "Total N = 35", "result": "18 (51.4) n (%)"}, {"measurement": "Constipation (all-grade AE)", "setting": "Total N = 35", "result": "5 (14.3) n (%)"}, {"measurement": "Decreased appetite (all-grade AE)", "setting": "Total N = 35", "result": "15 (42.9) n (%)"}, {"measurement": "Diarrhoea (all-grade AE)", "setting": "Total N = 35", "result": "29 (82.9) n (%)"}, {"measurement": "Dry skin (all-grade AE)", "setting": "Total N = 35", "result": "7 (20.0) n (%)"}, {"measurement": "Dyspnoea (all-grade AE)", "setting": "Total N = 35", "result": "4 (11.4) n (%)"}, {"measurement": "Fatigue (all-grade AE)", "setting": "Total N = 35", "result": "17 (48.6) n (%)"}, {"measurement": "GGT increased (all-grade AE)", "setting": "Total N = 35", "result": "6 (17.1) n (%)"}, {"measurement": "Hyperglycaemia (all-grade AE)", "setting": "Total N = 35", "result": "8 (22.9) n (%)"}, {"measurement": "Hypoalbuminaemia (all-grade AE)", "setting": "Total N = 35", "result": "9 (25.7) n (%)"}, {"measurement": "Hypokalaemia (all-grade AE)", "setting": "Total N = 35", "result": "4 (11.4) n (%)"}, {"measurement": "Hyponatraemia (all-grade AE)", "setting": "Total N = 35", "result": "5 (14.3) n (%)"}, {"measurement": "Insomnia (all-grade AE)", "setting": "Total N = 35", "result": "4 (11.4) n (%)"}, {"measurement": "Musculoskeletal chest pain (all-grade AE)", "setting": "Total N = 35", "result": "4 (11.4) n (%)"}, {"measurement": "Nausea (all-grade AE)", "setting": "Total N = 35", "result": "26 (74.3) n (%)"}, {"measurement": "Patients with any AE (all-grade AE)", "setting": "Total N = 35", "result": "35 (100.0) n (%)"}, {"measurement": "Platelet count decreased (all-grade AE)", "setting": "Total N = 35", "result": "9 (25.7) n (%)"}, {"measurement": "Pyrexia (all-grade AE)", "setting": "Total N = 35", "result": "6 (17.1) n (%)"}, {"measurement": "Thrombocytopenia (all-grade AE)", "setting": "Total N = 35", "result": "5 (14.3) n (%)"}, {"measurement": "Vomiting (all-grade AE)", "setting": "Total N = 35", "result": "19 (54.3) n (%)"}, {"measurement": "White blood cell count decreased (all-grade AE)", "setting": "Total N = 35", "result": "9 (25.7) n (%)"}, {"measurement": "Patients with DLTs", "setting": "all doses", "result": "Four"}, {"measurement": "AEs of grade ≥3, patients", "setting": "all doses, 35 patients", "result": 45.7, "unit": "%"}, {"measurement": "CTCAE grade ≥3 AEs causally related to AZD1208, patients", "setting": "all doses, 35 patients", "result": 28.6, "unit": "%"}, {"measurement": "CTCAE grade ≥3 GGT increase, patients", "setting": "all doses, 35 patients", "result": 8.6, "unit": "%"}, {"measurement": "CTCAE grade ≥3 abdominal pain, patients", "setting": "all doses, 35 patients", "result": 5.7, "unit": "%"}, {"measurement": "CTCAE grade ≥3 anaemia, patients", "setting": "all doses, 35 patients", "result": 5.7, "unit": "%"}, {"measurement": "CTCAE grade ≥3 fatigue, patients", "setting": "all doses, 35 patients", "result": 11.4, "unit": "%"}, {"measurement": "Diarrhoea causally related to AZD1208, patients", "setting": "all doses, 35 patients", "result": 68.6, "unit": "%"}, {"measurement": "Diarrhoea, patients", "setting": "all doses, 35 patients", "result": 82.9, "unit": "%"}, {"measurement": "Discontinued the study due to an AE, patients", "setting": "all doses, 35 patients", "result": 11.4, "unit": "%"}, {"measurement": "Dose interruptions because of AEs, patients", "setting": "all doses, 35 patients", "result": 45.7, "unit": "%"}, {"measurement": "Gastrointestinal disorders AEs, patients", "setting": "all doses, 35 patients", "result": 97.1, "unit": "%"}, {"measurement": "Nausea causally related to AZD1208, patients", "setting": "all doses, 35 patients", "result": 65.7, "unit": "%"}, {"measurement": "Nausea, patients", "setting": "all doses, 35 patients", "result": 74.3, "unit": "%"}, {"measurement": "Patients with ≥1 SAE", "setting": "all doses, 35 patients", "result": 22.9, "unit": "%"}, {"measurement": "SAE dyspnoea, patients", "setting": "all doses, 35 patients", "result": 5.7, "unit": "%"}, {"measurement": "SAE vomiting, patients", "setting": "all doses, 35 patients", "result": 5.7, "unit": "%"}, {"measurement": "Vomiting, patients", "setting": "all doses, 35 patients", "result": 54.3, "unit": "%"}, {"measurement": "Treatment-related changes in haematology, clinical chemistry, vital signs, ECG or physical findings", "setting": "any patient", "result": "No clinically significant treatment-related changes"}, {"measurement": "Patients who died as a result of an AE", "setting": "not considered AZD1208-related by the investigator", "result": 2.9, "unit": "%"}, {"measurement": "Patients reporting treatment-related SAEs", "setting": "one patient, three SAEs (vomiting, fatigue, general physical health deterioration)", "result": 2.9, "unit": "%"}, {"measurement": "Doses tolerated as monotherapy", "setting": "solid tumour study", "result": "up to 700 mg QD"}, {"measurement": "Maximum tolerated dose (MTD)", "setting": "solid tumour study", "result": "could not be determined"}]}
